target: T1, D protease (Paenibacillus polymyxa, UniProt P29148); test: Inhibition, activation and stabilization of D protease; type: biochemical; settings: not given
T1 sequence (P29148 287-590): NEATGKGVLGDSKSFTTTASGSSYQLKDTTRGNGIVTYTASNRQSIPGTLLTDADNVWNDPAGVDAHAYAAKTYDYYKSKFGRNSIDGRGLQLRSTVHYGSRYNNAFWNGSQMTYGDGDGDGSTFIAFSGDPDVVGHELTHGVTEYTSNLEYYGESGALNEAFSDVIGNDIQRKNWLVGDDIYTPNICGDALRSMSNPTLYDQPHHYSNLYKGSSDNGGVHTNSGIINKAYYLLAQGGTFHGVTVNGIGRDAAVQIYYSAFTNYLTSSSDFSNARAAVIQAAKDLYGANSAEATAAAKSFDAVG

Row | Structure (SMILES) | Stabilization of D protease | Activation of D protease
1 | [Ca+2] [Ca^2+] | stabilized | –
2 | [Zn+2] [zinc ion] | – | activation thereof requires zinc ion

same assay, conditions: metal chelating agents and oxidizing agents

Row | Structure (SMILES) | Inhibition of D protease
3 | [F-].[Na+] [sodium fluoride] | inhibited
4 | O=C(O)CC(O)(CC(=O)O)C(=O)O [citric acid] | inhibited
5 | II [iodine] | inhibited
6 | c1ccc(-c2ccccn2)nc1 [2,2-dipyridyl] | inhibited
7 | O=C1CCC(=O)N1Br [N-bromosuccinimide] | inhibited
8 | c1cnc2c(c1)ccc1cccnc12 [O-phenanthroline] | inhibited

target: T1, D protease; test: not given; settings: Patent Document 1; cited from earlier work

Row | Structure (SMILES) | Effect on D protease activity
9 | [Fe+2] [Fe^2+] | activity enhanced
10 | [Mn+2] [Mn^2+] | activity enhanced
11 | [Al+3] [Al^3+] | activity enhanced
12 | [Ca+2] [Ca^2+] | activity enhanced
13 | [Mg+2] [Mg^2+] | activity enhanced

— US8951397B2, “Electrophoretic analysis method” (Godo Shusei Co., Ltd., priority 2009, dated 2015)
